Entries after “also recorded” stand apart in the source; their conditions may differ.
Key:
[1] = test system: FANCA deficiency lymphocyte cell line (FANCA B-lymphocyte, GM13022); assay: Proliferation of FANCA deficient lymphocytes under 4 HNE challenge (alamarBlue); format: cell-based
Procedure: FANCA deficiency lymphocyte cell line (Fanconi Anemia, Complementation Group A, FANCA B-lymphocyte, GM13022) was purchased from Coriell Cell Repositories (403 Haddon Ave, Camden, N.J. 08103).
Standard cell culture conditions were used in this experiment. The culture medium (CM) consisted of culture medium RPMI1640, 15% heat-inactivated FBS, 2 mM L-glutamine, 1% Pen/Strep. Cells were suspended in 10-20 ml CM in T25 tissue culture flask in an upright position and incubated in a 37° C., 5% CO2 incubator. Cells were counted daily and diluted with fresh CM to 3×10^5 cells/ml. Cells thawed and maintained in culture for 3-12 days were used in these studies.
Cell densities of FANCA lymphocytes were determined and cells were diluted in RPMI1640 medium containing 15% FBS, 2 mM L-glutamine, 1% Pen/Strep to desired cell density. 4000 cells in 50-75 μl were plated onto each well in total 48 wells in columns 3-10 and rows B-G. This plating arrangement provided 6-replicates per column for each experimental condition. Plate was then centrifuged at 500 rpm for 2 min to ensure better distribution of cells across the well. For background medium controls, equal volume (50-75 μl) of dilution medium were added to wells B2, C2, D2.
For minimizing cells/medium drying in sample wells, 150 μl of 1×DPBS was added to each well of the 45 wells surrounding the sample and control wells. Plate was then incubated in a 37° C. 5% CO2 incubator for at least 4 hours before addition of new reagent.
Compounds were diluted from 20 mM stocks in DMSO with RPMI1640 medium containing 15% FBS. RPMI1640 medium containing 15% FBS and corresponding volume of DMSO was used as controls.
4 HNE (64 mM in 100% ethanol) was diluted to desired concentrations with RPMI1640 base medium.
AlamarBlue was added to each well to final 9.1 or 10% of the total volume in each well. Plate was further incubated in the 37° C. 5% CO2 incubator. The alamarBlue assay is designed to measure quantitatively the proliferation of human and animal cell lines in culture versus incubation time period.
Plate was removed from the CO2 incubator at a pre-designated time and placed in the microplate reader. The fluorescence level in each well was monitored at Ex 554 nm and Em 590 nm. Afterwards the numeric numbers/units were used for data analyses.
Fluorescence units in all wells were acquired by the microplate reader at each time point. Data were then exported to scientist's computer equipped with SoftMax ProS software. The average of Background units (Blk, 3×) and the average of each sample set (6 replicates) were determined. For data collected at each time point (cell culture incubation period), the average of Blk units were subtracted from the average of each set of the Sample units. These “net fluorescence unit” data were then presented in a plot consisted of different culture incubation time periods (the x-axis) versus the corresponding net fluorescence units (y-axis).
The “net fluorescence units” of each sample set were also compared to those of the “control” at each time point. “Control fluorescence units” were considered to be 100% at all the time points. Each set of “net fluorescence units” were divided by the “Control fluorescent units” and multiplied by 100 to obtain corresponding percentages. These “relative percentage” data were then presented in a plot consisted of time points (the x-axis) versus the corresponding relative percentages to control of 100 (y-axis).
The inhibitory effect of 4 HNE on the proliferation of FANCA lymphocytes was examined. 4000 cells in 75 μl of RPMI1640 medium containing 15% FBS were plated onto each sample well in a 96-well poly D-lysine coated black/clear cell culture plate and the plate was incubated in a 37° C. 5% CO2 incubator for 7 hours.
Stock of 4 HNE at 64 mM was diluted with RPMI1640 medium to 10 μM, 20 μM, 30 μM, 40 μM, 60 μM, 80 μM, and 120 μM. […]

ALDH2 = target: T1, ALDH2 (Homo sapiens, UniProt P05091); assay: ALDH2 activity with 20 μM of the compound (Table 3); format: biochemical; conditions: 20 μM compound
T1 construct: His-tag (N); made in house; host or cells: E. coli BL21
T1 sequence (P05091 18-517): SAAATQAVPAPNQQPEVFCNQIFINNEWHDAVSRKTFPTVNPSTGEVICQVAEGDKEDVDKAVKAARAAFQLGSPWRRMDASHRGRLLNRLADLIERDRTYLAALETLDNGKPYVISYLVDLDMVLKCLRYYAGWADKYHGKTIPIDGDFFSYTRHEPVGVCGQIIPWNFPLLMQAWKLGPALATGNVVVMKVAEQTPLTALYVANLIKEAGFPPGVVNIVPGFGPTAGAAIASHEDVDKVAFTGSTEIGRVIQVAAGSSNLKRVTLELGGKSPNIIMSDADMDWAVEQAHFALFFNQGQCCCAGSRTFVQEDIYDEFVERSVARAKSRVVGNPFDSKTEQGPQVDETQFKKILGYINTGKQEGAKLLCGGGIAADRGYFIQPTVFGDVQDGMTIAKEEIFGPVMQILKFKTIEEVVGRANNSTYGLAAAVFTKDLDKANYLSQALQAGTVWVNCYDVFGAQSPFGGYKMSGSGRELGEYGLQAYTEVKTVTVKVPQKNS
Summary of the method: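 Compound was tested at 20 μM. ALDH2 oxidation of acetaldehyde with NAD+ cofactor was followed spectrophotometrically as NADH accumulation at 340 nm. Activity is expressed relative to the enzyme's baseline activity, taken as 100%.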

[2] = test system: carrageenan inflammatory pain model in male C57BL/6 mice; assay: Carrageenan inflammatory pain model, Von Frey paw withdrawal threshold; format: in vivo; conditions: for contralateral paw withdrawal threshold / ipsilateral paw withdrawal threshold compared to vehicle: 180 minutes after carrageenan; for carrageenan-induced mechanical hyperalgesia: ipsilateral paw
Procedure: Mice are acclimated to the colony room and maintained on a 12 hour/12 hour light/dark cycle. To induce plantar sensitivity to tactile stimuli, a single injection of carrageenan is administered to the plantar hindpaw of the mice and withdrawal from a mechanical stimulus is measured by applying Von Frey filaments of ascending bending force to the plantar surface of the hind paws.
A compound of formula (I) is dissolved and administered subcutaneous (sc) or orally (po) prior to carrageenan administration and after carrageenan injections. Data is analyzed by analysis of variance (ANOVA) followed by post-hoc comparisons with Fisher Tests when appropriate.
The analgesic effects of AC151 and Alda-1 were evaluated using the carrageenan inflammatory pain model in male C57BL/6 mice. The mice were administered AC151, Alda-1 and vehicle (saline) as a control.
Male C57BL/6J mice from Jackson Laboratories (Bar Harbor, Me.) were used in this study. Mice were received at 6-7 weeks of age. Upon receipt, mice were assigned unique identification numbers (tail marked) and were group housed in OPTImice cages. All animals were acclimated to the colony room for at least 1 week prior to testing. During the period of acclimation, animals were examined on a regular basis, handled, and weighed to assure adequate health and suitability. Animals were maintained on a 12 hour/12 hour light/dark cycle. The room temperature was maintained between 20° C. and 23° C. with a relative humidity maintained between 30% and 70%. Chow and water were provided ad libitum for the duration of the study. All testing was performed during the animal's light cycle phase.
To induce plantar sensitivity to tactile stimuli, a single injection of carrageenan was administered to the plantar hindpaw of the mice and three hours later withdrawal from a mechanical stimulus is measured by applying Von Frey filaments of ascending bending force (0.02 to 6 grams) to the plantar surface of the hind paws (ipsilateral and contralateral to injection). A positive response was defined as withdrawal from the Von Frey filament. Confirmation of threshold is tested by examining the filament above and below the withdrawal response. A significant decrease in withdrawal threshold is interpreted as mechanical hyperalgesia. Prior to drug or carrageenan treatment, baseline Von Frey measures were taken and used to balance animals across treatment groups.
Alda-1 (1, 2, and 5 mg/kg) was dissolved in 50% DMSO/50% PEG and administered subcutaneous (sc), 15 min prior to carrageenan administration and twice again 30 and 150 minutes after carrageenan injections at a dose volume of 5 ml/kg. AC151 (40 and 80 mg/kg) was dissolved in saline and administered orally (po), 30 min after carrageenan administration. For one group, AC151 (80 mg/kg) was administered 15 min prior to carrageenan injections. The dose volume for this compound was 10 ml/kg.
The initial injections of AC151 (80 mg/kg) and Alda-1 were made 15 min prior to carrageenan injections. Then, a single 3.5 μl injection of 3% carrageenan was administered to the right plantar hindpaw. Alda-1 was then administered twice, once 30 minutes after carrageenan and again 150 minutes post-carrageenan. In separate treatment groups AC151 (40 mg/kg and 80 mg/kg) as well as saline vehicle were administered 30 minutes after carrageenan injection. Von Frey measures were taken 180 minutes after carrageenan injection.
Data were analyzed by analysis of variance (ANOVA) followed by post-hoc comparisons with Fisher Tests when appropriate. An effect was considered significant if p<0.05. […].

## CCCCCC(O)/C=C/C=O (stereo not drawn) [4 HNE, trans-4-Hydroxynonenal, reference compound]
[1]; 3.5 μM 4 HNE only, 25 hours to 48 hours after 4 HNE treatment
  relative cell proliferation rate (control = 100%): 83%
[1]; 4 HNE 2.5 to 30 μM, no ALDH2 activator
  level of FANCA cell proliferation: reduction of the level of cell proliferation in a concentration-dependent manner

## COc1ccc(CNC(=O)c2cc(-c3n[nH]cc3CO)ccc2OCC2CC2)cc1F [AC32]
ALDH2
  activity at 20 µM: > 250%
[1]; 3.5 μM 4 HNE, 5 μM and 10 μM AC6, 10 μM AC32, 25 hours to 48 hours after 4 HNE treatment
  relative cell proliferation versus control without AC compounds: higher levels of cell growth than “control”; also recorded: more efficient growth than control
[1]; 10 μM compound, pretreatment 2 hours before 6 μM 4 HNE challenge
  FANCA-deficiency lymphocyte cell growth versus 4 HNE only or 2 μM ALDH2 activators: higher levels of cell growth
[1]; pretreatment 2 hours before 3.5 μM 4 HNE challenge, 2 to 10 μM compound
  FANCA-deficiency lymphocyte cell growth versus 4 HNE only: higher levels of cell growth

## COc1ccc(CNC(=O)c2cc(-c3ncccc3COC(=O)[C@H](N)C(C)C)ccc2OCC(C)C)cc1F [AC151]
[2]
  contralateral paw withdrawal threshold: No treatment effects
  carrageenan-induced mechanical hyperalgesia: attenuated carrageenan-induced mechanical hyperalgesia
[2]; AC151 40 and 80 mg/kg po (all groups)
  ipsilateral paw withdrawal threshold compared to vehicle: significantly increased paw withdrawal threshold

## O=C(NCc1ccc2c(c1)OCO2)c1c(Cl)cccc1Cl [Alda-1, N-(1,3-Benzodioxol-5-ylmethyl)-2,6-dichlorobenzamide, reference compound]
[2]
  contralateral paw withdrawal threshold: No treatment effects
  carrageenan-induced mechanical hyperalgesia: attenuated carrageenan-induced mechanical hyperalgesia
[2]; Alda-1 5 mg/kg sc, three doses
  ipsilateral paw withdrawal threshold compared to vehicle: significantly increased paw withdrawal threshold

From patent publication US9879036B2, “Mitochondrial aldehyde dehydrogenase-2 binding compounds and methods of use thereof” (Aviv Therapeutics, Inc., priority 2014, dated 2018)
